Tests used:
Chung model rats = test: Chung model of chronic pain (spinal nerve ligation), tactile allodynia by von Frey hairs; type: in vivo, rat; details: single oral dose, FIG. 1
Description: Various concentrations of N-(2,3-dichlorobenzyl)-4,5-dihydro-1H-imidazol-2-amine were administered orally to Chung model rats. A model in accordance with Kim and Chung 1992, Pain […], pp 355-363 (Chung model), for chronic pain (in particular peripheral neuropathy) involves the surgical ligation of the L5 (and optionally the L6) spinal nerves on one side in experimental animals. Rats recovering from the surgery gain weight and display a level of general activity similar to that of normal rats. However, these rats develop abnormalities of the foot, wherein the hindpaw is moderately everted and the toes are held together. More importantly, the hindpaw on the side affected by the surgery appears to become sensitive to pain from low-threshold mechanical stimuli, such as that producing a faint sensation of touch in a human, within about 1 week following surgery. […]
Tactile allodynia is measured prior to and 30 minutes after drug administration using von Frey hairs that are a series of fine hairs with incremental differences in stiffness. […] The applied force has been calculated to range from 0.41 to 15.1 grams. […] The 50% paw withdrawal threshold is determined using the method of Dixon, W. J., Ann. […] The post-drug threshold is compared to the pre-drug threshold and the percent reversal of tactile sensitivity is calculated based on a normal threshold of 15.1 grams.

male ddC treated rats = test: Dideoxycytidine (ddC) model of neuropathic pain, allodynia by von Frey hairs; type: in vivo, rat; details: for % Allodynia Reversal: 15 min post dose / % Allodynia Reversal: 30 min post dose / % Allodynia Reversal: 60 min post dose / % Allodynia Reversal: 120 min post dose: mean ± SEM
Description: The ddC Model in the rat is a relatively new model of neuropathic pain discovered from clinical treatment of the AIDS virus. […] The experimental animal model in the rat for neuropathic pain by ddC injection manifests symptoms of human patients with causalgia. It is considered predictive of clinical activity against neuropathic pain (Joseph et al, 2004). Compound N-(2,3-dichlorobenzyl)-4,5-dihydro-1H-imidazol-2-amine was tested in this ddC model of allodynic pain. The compound was administered intraperitoneally to male ddC treated rats.
The animals are injected intraperitoneally (IP) with 25 mg/kg dideoxycytidine (ddC) using a sterile 30 gauge needle. Approximately 3 weeks after the ddC injection a painful neuropathy develops causing sensitivity to light touch on the animals' extremities. This neuropathy can last for 2-3 months. The animals show no spontaneous pain, only a heightened response to mechanical stimuli (von Frey hair stimulation). The allodynia is quantitated in the animals receiving ddC injections by stimulation with a series of 8 Von Frey hairs on the mid planter area of the hind paws in the up-down manner described by Dixon (Dixon, 1980).
Male Sprague-Dawley rats (Charles River, Wilmington, Mass.) weighing approximately 150-300 grams were used for these studies. All experimental animals received N-(2,3-dichlorobenzyl)-4,5-dihydro-1H-imidazol-2-amine or vehicle in a single acute IP dose. In all studies, baseline measurements were taken prior to drug administration and then at 15, 30, 60 and 120 minutes post acute IP dosing (vehicle or N-(2,3-dichlorobenzyl)-4,5-dihydro-1H-imidazol-2-amine). The % allodynia reversal is calculated as: [(Postdrug threshold—Predrug threshold)/(15-Predrug threshold)]×100.
N-(2,3-dichlorobenzyl)-4,5-dihydro-1H-imidazol-2-amine was dissolved in 42% DMSO (dimethyl sulfoxide; Sigma, St. Louis, Mo.) at a concentration of 3 mg/ml. This stock solution was kept frozen at −20° C., was thawed on the day of the study and diluted in dd-H2O to concentrations ranging from 0.01-0.1 mg/ml for IP dosing (dosing volume=1 ml/kg). The vehicle is dd-H2O for these studies.
Data were compiled and analyzed using Microsoft Excel and/or Kaleidagraph. Data are expressed as mean± standard error of the mean. Comparisons between drug treated and vehicle groups were made using a two-tailed, 2-sample, unpaired t-test. Comparisons between baselines (pre-drug) and post-drug time points were made using a two-tailed, 2-sample, paired t-test.

Clc1cccc(CNC2=NCCN2)c1Cl [N-(2,3-dichlorobenzyl)-4,5-dihydro-1H-imidazol-2-amine]
Time of decrease of allodynia reversal to baseline (Chung model rats): about 120 minutes
Time of peak percent allodynia reversal (Chung model rats): 30 min
% Allodynia Reversal: 15 min post dose (male ddC treated rats; 0.01 mg/kg IP, n = 6): 1.8 ± 1.6%
% Allodynia Reversal: 30 min post dose (male ddC treated rats; 0.01 mg/kg IP, n = 6): 3.0 ± 1.7%
% Allodynia Reversal: 60 min post dose (male ddC treated rats; 0.01 mg/kg IP, n = 6): 1.5 ± 2.0%
% Allodynia Reversal: 120 min post dose (male ddC treated rats; 0.01 mg/kg IP, n = 6): 0.1 ± 1.3%
% Allodynia Reversal: 15 min post dose (male ddC treated rats; 0.03 mg/kg IP, n = 6): 34 ± 3.9 %
% Allodynia Reversal: 30 min post dose (male ddC treated rats; 0.03 mg/kg IP, n = 6): 67%
% Allodynia Reversal: 60 min post dose (male ddC treated rats; 0.03 mg/kg IP, n = 6): 20 ± 3.7 %
% Allodynia Reversal: 120 min post dose (male ddC treated rats; 0.03 mg/kg IP, n = 6): 2.0 ± 2.6%
% Allodynia Reversal: 30 min post dose (male ddC treated rats; 0.03 mg/kg IP, n = 6, listed as 200762): 67 ± 9.0 %
% Allodynia Reversal: 15 min post dose (male ddC treated rats; 0.1 mg/kg IP, n = 6): 58 ± 9.1 %
% Allodynia Reversal: 30 min post dose (male ddC treated rats; 0.1 mg/kg IP, n = 6): 86%
% Allodynia Reversal: 60 min post dose (male ddC treated rats; 0.1 mg/kg IP, n = 6): 34 ± 2.5 %
% Allodynia Reversal: 120 min post dose (male ddC treated rats; 0.1 mg/kg IP, n = 6): 0.9 ± 1.2%
% Allodynia Reversal: 30 min post dose (male ddC treated rats; 0.1 mg/kg IP, n = 6, listed as 200762): 86 ± 6.3 %
Minimal statistically significant efficacious dose (male ddC treated rats; IP, male rats): 0.03 mg/kg
No-effect dose (male ddC treated rats; IP, male rats): 0.01 mg/kg

— patent US9849113B2, “Methods of treating α adrenergic mediated conditions” (Allergan, Inc., priority 2008, dated 2017)
